Paper PMC8500670, “A selective WDR5 degrader inhibits acute myeloid leukemia in patient-derived mouse models” (Science translational medicine, 2021)

Experiments:
Experiment in all cases: biochemical
[1] = molecular target: T1, Pim-2(h) (Homo sapiens, UniProt Q9P1W9); design: kinase selectivity panel, activity as per cent of control, single concentration in duplicate; settings: read-out: % of control remaining
T1 construct: gene PIM2
Procedure: (§1) We next assessed selectivity of MS67 against 22 protein methyltransferases (table S2) and a broad panel of common drug targets including 45 kinases (table S3) and 44 G protein–coupled receptors (GPCR), ion channels, and transporters (table S4). […] We subsequently determined that MS67 had moderate binding affinity (Ki = 1.0 ± 0.8 μM) to Sigma 2 receptor (fig. S10).

[2] = molecular target: FGFR2(h) (Homo sapiens, UniProt P21802); design: kinase selectivity panel, activity as per cent of control, single concentration in duplicate; settings: read-out: % of control remaining
Procedure: as §1

[3] = molecular target: PAK4(h) (Homo sapiens, UniProt O96013); design: kinase selectivity panel, activity as per cent of control, single concentration in duplicate; settings: read-out: % of control remaining
Procedure: as §1

[4] = molecular target: T2, MAPKAP-K2(h) (Homo sapiens, UniProt P49137); design: kinase selectivity panel, activity as per cent of control, single concentration in duplicate; settings: read-out: % of control remaining
T2 construct: gene MAPKAPK2
Procedure: as §1

[5] = molecular target: T3, SGK(h) (Homo sapiens, UniProt O00141); design: kinase selectivity panel, activity as per cent of control, single concentration in duplicate; settings: read-out: % of control remaining
T3 construct: gene SGK1
Procedure: as §1

[6] = molecular target: T4, PKBα(h) (Homo sapiens, UniProt P31749); design: kinase selectivity panel, activity as per cent of control, single concentration in duplicate; settings: read-out: % of control remaining
T4 construct: gene AKT1
Procedure: as §1

[7] = molecular target: FGFR3(h) (Homo sapiens, UniProt P22607); design: kinase selectivity panel, activity as per cent of control, single concentration in duplicate; settings: read-out: % of control remaining
Procedure: as §1

[8] = molecular target: T5, c-RAF(h) (Homo sapiens, UniProt P04049); design: kinase selectivity panel, activity as per cent of control, single concentration in duplicate; settings: read-out: % of control remaining
T5 construct: gene RAF1
Procedure: as §1

[9] = molecular target: JAK3(h) (Homo sapiens, UniProt P52333); design: kinase selectivity panel, activity as per cent of control, single concentration in duplicate; settings: read-out: % of control remaining
Procedure: as §1

[10] = molecular target: T6, ROCK-I(h) (Homo sapiens, UniProt Q13464); design: kinase selectivity panel, activity as per cent of control, single concentration in duplicate; settings: read-out: % of control remaining
T6 construct: gene ROCK1
Procedure: as §1

[11] = molecular target: EGFR(h) (Homo sapiens, UniProt P00533); design: kinase selectivity panel, activity as per cent of control, single concentration in duplicate; settings: read-out: % of control remaining
Procedure: as §1

[12] = molecular target: T7, SAPK2a(h) (Homo sapiens, UniProt Q16539); design: kinase selectivity panel, activity as per cent of control, single concentration in duplicate; settings: read-out: % of control remaining
T7 construct: gene MAPK14
Procedure: as §1

[13] = molecular target: T8, Aurora-A(h) (Homo sapiens, UniProt O14965); design: kinase selectivity panel, activity as per cent of control, single concentration in duplicate; settings: read-out: % of control remaining
T8 construct: gene AURKA
Procedure: as §1

[14] = molecular target: T9, Mnk2(h) (Homo sapiens, UniProt Q9HBH9); design: kinase selectivity panel, activity as per cent of control, single concentration in duplicate; settings: read-out: % of control remaining
T9 construct: gene MKNK2
Procedure: as §1

[15] = molecular target: T10, CHK2(h) (Homo sapiens, UniProt O96017); design: kinase selectivity panel, activity as per cent of control, single concentration in duplicate; settings: read-out: % of control remaining
T10 construct: gene CHEK2
Procedure: as §1

[16] = molecular target: T11, Alpha2C (Homo sapiens, UniProt P18825); design: NIMH-PDSP radioligand binding assays, percent inhibition of radioligand binding, quadruplicate
T11 construct: gene ADRA2C

[17] = molecular target: T12, 5-HT2C (Homo sapiens, UniProt P28335); design: NIMH-PDSP radioligand binding assays, percent inhibition of radioligand binding, quadruplicate
T12 construct: gene HTR2C

[18] = molecular target: T13, SERT (Homo sapiens, UniProt P31645); design: NIMH-PDSP radioligand binding assays, percent inhibition of radioligand binding, quadruplicate
T13 construct: gene SLC6A4

[19] = molecular target: T14, D4 (Homo sapiens, UniProt P21917); design: NIMH-PDSP radioligand binding assays, percent inhibition of radioligand binding, quadruplicate
T14 construct: gene DRD4

[20] = molecular target: T15, Beta2 (Homo sapiens, UniProt P07550); design: NIMH-PDSP radioligand binding assays, percent inhibition of radioligand binding, quadruplicate
T15 construct: gene ADRB2

[21] = molecular target: T16, NET (Homo sapiens, UniProt P23975); design: NIMH-PDSP radioligand binding assays, percent inhibition of radioligand binding, quadruplicate
T16 construct: gene SLC6A2

[22] = molecular target: T17, 5-HT1E (Homo sapiens, UniProt P28566); design: NIMH-PDSP radioligand binding assays, percent inhibition of radioligand binding, quadruplicate
T17 construct: gene HTR1E

[23] = molecular target: T18, 5-HT1B (Homo sapiens, UniProt P28222); design: NIMH-PDSP radioligand binding assays, percent inhibition of radioligand binding, quadruplicate
T18 construct: gene HTR1B

[24] = molecular target: T19, M5 (Homo sapiens, UniProt P08912); design: NIMH-PDSP radioligand binding assays, percent inhibition of radioligand binding, quadruplicate
T19 construct: gene CHRM5

[25] = molecular target: T20, 5-HT2B (Homo sapiens, UniProt P41595); design: NIMH-PDSP radioligand binding assays, percent inhibition of radioligand binding, quadruplicate
T20 construct: gene HTR2B
T20 sequence (P41595 whole entry): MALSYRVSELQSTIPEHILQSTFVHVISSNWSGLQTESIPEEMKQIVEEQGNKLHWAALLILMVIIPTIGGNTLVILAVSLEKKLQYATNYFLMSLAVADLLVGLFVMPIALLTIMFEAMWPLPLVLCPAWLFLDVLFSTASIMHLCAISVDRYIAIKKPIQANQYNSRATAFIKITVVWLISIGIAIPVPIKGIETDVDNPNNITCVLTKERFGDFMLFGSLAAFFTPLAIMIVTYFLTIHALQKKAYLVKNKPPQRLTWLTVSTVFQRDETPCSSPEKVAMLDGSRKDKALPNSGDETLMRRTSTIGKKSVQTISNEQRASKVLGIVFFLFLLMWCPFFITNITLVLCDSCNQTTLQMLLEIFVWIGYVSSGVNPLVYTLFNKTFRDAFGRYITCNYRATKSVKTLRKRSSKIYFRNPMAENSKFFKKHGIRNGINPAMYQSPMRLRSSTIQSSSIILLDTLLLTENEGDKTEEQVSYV

T19 sequence (P08912 whole entry): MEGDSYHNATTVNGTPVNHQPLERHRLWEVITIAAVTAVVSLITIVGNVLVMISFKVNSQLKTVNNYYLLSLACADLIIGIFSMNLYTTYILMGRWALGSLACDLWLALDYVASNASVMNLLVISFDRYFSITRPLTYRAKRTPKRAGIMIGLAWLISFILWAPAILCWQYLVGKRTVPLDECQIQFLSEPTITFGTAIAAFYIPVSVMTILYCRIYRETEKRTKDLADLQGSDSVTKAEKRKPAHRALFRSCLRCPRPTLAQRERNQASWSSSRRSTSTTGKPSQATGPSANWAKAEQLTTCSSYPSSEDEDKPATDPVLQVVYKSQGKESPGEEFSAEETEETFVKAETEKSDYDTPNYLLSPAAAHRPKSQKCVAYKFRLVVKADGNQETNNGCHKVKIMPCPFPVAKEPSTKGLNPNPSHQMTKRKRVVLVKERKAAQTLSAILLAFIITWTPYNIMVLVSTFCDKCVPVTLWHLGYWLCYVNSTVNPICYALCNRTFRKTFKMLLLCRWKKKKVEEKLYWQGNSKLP
T4 sequence (P31749 whole entry): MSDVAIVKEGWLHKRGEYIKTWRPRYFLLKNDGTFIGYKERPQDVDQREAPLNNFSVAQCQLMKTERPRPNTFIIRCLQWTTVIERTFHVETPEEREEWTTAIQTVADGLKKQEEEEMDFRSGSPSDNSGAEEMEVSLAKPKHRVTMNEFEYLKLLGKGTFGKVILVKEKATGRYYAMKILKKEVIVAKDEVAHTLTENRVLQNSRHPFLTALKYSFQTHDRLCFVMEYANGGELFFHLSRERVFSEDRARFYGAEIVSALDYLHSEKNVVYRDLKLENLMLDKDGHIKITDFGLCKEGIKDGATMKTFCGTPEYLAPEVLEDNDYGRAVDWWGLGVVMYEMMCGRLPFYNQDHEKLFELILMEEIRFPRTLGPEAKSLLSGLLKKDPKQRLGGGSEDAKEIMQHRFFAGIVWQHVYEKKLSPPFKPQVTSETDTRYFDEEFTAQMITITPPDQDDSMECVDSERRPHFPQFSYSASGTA
Sequence of FGFR3(h) (P22607 whole entry): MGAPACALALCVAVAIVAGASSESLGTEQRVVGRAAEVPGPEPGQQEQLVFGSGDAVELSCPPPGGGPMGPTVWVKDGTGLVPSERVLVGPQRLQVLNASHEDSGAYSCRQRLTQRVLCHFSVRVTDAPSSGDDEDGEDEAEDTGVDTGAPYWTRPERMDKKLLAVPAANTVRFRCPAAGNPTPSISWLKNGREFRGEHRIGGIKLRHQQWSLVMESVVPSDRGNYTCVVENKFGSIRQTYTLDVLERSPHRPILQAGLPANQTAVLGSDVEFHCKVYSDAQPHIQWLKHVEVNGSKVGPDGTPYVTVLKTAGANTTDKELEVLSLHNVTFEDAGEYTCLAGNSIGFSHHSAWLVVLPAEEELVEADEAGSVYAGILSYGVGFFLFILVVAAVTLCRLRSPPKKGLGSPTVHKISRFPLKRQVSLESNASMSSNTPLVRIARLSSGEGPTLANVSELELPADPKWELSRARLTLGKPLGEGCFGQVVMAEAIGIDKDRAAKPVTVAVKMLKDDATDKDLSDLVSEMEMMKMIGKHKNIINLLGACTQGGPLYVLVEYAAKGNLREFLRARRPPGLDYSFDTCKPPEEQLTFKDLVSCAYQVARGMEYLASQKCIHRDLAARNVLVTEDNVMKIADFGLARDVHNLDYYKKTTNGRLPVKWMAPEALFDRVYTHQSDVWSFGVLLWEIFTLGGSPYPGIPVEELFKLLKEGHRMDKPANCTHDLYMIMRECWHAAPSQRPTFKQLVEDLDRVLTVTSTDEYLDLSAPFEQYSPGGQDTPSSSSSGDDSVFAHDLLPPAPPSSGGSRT
T17 sequence (P28566 whole entry): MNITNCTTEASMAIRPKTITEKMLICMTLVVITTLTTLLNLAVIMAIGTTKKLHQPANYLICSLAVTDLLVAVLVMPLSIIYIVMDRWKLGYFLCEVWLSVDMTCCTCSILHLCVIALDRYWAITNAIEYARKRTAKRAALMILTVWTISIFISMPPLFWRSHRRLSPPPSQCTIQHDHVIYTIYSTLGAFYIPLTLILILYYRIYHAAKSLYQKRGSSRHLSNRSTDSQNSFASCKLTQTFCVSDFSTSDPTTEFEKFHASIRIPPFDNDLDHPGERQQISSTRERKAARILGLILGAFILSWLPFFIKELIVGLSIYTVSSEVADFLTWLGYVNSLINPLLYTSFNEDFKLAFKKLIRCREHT
T18 sequence (P28222 whole entry): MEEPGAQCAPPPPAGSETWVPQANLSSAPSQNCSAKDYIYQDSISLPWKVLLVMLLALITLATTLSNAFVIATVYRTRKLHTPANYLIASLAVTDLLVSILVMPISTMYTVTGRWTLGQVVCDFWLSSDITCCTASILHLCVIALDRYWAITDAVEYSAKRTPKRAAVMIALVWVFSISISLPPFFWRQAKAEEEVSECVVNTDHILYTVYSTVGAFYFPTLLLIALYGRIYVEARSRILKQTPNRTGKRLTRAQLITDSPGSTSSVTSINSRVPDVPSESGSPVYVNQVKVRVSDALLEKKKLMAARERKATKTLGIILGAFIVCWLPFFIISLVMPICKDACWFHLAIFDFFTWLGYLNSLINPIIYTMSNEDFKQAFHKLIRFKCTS
T8 sequence (O14965 whole entry): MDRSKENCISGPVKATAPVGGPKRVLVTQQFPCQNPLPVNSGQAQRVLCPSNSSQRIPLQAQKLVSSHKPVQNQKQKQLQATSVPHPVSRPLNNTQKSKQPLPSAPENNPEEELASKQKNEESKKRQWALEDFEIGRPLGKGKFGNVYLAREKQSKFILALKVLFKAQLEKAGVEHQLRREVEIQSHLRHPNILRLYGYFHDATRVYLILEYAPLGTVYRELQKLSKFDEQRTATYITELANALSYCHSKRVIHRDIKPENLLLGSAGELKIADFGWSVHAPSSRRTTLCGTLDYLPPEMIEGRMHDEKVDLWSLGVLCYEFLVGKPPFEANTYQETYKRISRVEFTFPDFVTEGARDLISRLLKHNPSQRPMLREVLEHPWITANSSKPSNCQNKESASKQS
Sequence of EGFR(h) (P00533 whole entry): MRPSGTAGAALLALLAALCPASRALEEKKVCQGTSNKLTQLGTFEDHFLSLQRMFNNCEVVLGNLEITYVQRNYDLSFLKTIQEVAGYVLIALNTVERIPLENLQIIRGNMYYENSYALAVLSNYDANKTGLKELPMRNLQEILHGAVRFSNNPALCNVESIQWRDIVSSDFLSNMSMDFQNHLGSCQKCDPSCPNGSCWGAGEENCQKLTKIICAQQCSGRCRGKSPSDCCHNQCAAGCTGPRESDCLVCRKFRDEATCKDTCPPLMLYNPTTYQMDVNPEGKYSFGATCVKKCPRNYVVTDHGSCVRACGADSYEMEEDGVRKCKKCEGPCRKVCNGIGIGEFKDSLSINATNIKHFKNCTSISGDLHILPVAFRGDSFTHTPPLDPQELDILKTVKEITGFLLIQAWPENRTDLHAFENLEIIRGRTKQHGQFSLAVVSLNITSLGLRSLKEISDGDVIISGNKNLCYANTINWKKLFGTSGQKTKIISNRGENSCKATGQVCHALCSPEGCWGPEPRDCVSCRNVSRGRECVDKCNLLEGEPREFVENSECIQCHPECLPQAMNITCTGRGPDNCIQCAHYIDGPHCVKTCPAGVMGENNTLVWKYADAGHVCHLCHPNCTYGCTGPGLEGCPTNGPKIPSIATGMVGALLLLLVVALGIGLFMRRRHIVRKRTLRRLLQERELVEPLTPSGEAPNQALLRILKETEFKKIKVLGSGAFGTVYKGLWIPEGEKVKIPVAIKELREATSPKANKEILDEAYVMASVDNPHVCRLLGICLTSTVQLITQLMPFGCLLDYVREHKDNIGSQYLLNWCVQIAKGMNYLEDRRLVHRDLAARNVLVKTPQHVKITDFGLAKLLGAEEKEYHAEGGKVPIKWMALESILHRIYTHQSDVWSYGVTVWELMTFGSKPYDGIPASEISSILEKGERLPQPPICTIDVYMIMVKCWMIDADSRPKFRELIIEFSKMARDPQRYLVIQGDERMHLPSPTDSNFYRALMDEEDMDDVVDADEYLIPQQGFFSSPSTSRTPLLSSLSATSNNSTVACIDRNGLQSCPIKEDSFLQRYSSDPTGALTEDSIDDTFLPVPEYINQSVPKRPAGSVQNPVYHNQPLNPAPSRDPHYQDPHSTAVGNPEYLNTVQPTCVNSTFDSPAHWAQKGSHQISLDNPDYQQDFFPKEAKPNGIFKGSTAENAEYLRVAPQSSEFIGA
T1 sequence (Q9P1W9 whole entry): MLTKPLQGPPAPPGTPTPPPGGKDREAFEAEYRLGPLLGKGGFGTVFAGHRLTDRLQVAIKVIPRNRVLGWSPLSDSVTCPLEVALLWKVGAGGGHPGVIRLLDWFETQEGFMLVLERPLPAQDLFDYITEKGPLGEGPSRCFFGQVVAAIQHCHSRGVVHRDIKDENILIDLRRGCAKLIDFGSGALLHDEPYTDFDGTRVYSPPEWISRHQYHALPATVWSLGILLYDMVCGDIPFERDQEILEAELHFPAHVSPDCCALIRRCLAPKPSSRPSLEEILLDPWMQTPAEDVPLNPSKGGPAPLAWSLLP

## Cc1ncsc1-c1ccc([C@H](C)NC(=O)[C@@H]2C[C@@H](O)CN2C(=O)[C@@H](NC(=O)CNC(=O)c2ccc(F)c(-c3ccc(N4C[C@@H](C)N(C)[C@@H](C)C4)c(NC(=O)c4c[nH]c(=O)cc4C(F)(F)F)c3)c2)C(C)(C)C)cc1 [MS67]
[1]
  remaining activity at 1 µM: 99%
[2]
  remaining activity at 1 µM: 84%
[3]
  remaining activity at 1 µM: 95%
[4]
  remaining activity at 1 µM: 104%
[5]
  remaining activity at 1 µM: 113%
[6]
  remaining activity at 1 µM: 93%
[7]
  remaining activity at 1 µM: 104%
[8]
  remaining activity at 1 µM: 87%
[9]
  remaining activity at 1 µM: 100%
[10]
  remaining activity at 1 µM: 109%
[11]
  remaining activity at 1 µM: 101%
[12]
  remaining activity at 1 µM: 99%
[13]
  remaining activity at 1 µM: 108%
[14]
  remaining activity at 1 µM: 125%
[15]
  remaining activity at 1 µM: 97%
[16]
  inhibition at 1 µM: < 10%
[17]
  inhibition at 1 µM: < 10%
[18]
  inhibition at 1 µM: < 10%
[19]
  inhibition at 1 µM: < 10%
[20]
  inhibition at 1 µM: < 10%
[21]
  inhibition at 1 µM: < 10%
[22]
  inhibition at 1 µM: < 10%
[23]
  inhibition at 1 µM: < 10%
[24]
  inhibition at 1 µM: < 10%
[25]
  inhibition at 1 µM: < 10%
